Measured values from the supplement of paper PMC10307832.

Tests used:
Assay in all cases: relative viability (nuclei count vs DMSO), 5 days (fraction); higher = more cells survive
Shikonin + Palbociclib = compound: CC(C)=CC[C@@H](O)C1=CC(=O)c2c(O)ccc(O)c2C1=O [Shikonin] + CC(=O)c1c(C)c2cnc(Nc3ccc(N4CCNCC4)cn3)nc2n(C2CCCC2)c1=O [Palbociclib] (partner 0.5 µM)
How it was run: (§1)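 Relative viability equals treated-well nuclei counts divided by vehicle-well nuclei counts. Counts came from 4× images of lung cancer cell lines grown in 1536-well plates for 5 days after pin-tool dosing on the day after seeding. Dosing used one drug alone or a fixed anchor-drug dose plus five library-drug doses (not always all listed) in √10 steps, and values are medians of duplicate plates.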

Shikonin + Dasatinib = compound: CC(C)=CC[C@@H](O)C1=CC(=O)c2c(O)ccc(O)c2C1=O [Shikonin] + Cc1nc(Nc2ncc(C(=O)Nc3c(C)cccc3Cl)s2)cc(N2CCN(CCO)CC2)n1 [Dasatinib] (partner 0.075 µM)
How it was run: as §1

Shikonin + Navitoclax = compound: CC(C)=CC[C@@H](O)C1=CC(=O)c2c(O)ccc(O)c2C1=O [Shikonin] + CC1(C)CCC(c2ccc(Cl)cc2)=C(CN2CCN(c3ccc(C(=O)NS(=O)(=O)c4ccc(N[C@H](CCN5CCOCC5)CSc5ccccc5)c(S(=O)(=O)C(F)(F)F)c4)cc3)CC2)C1 [Navitoclax] (partner 0.5 µM)
How it was run: as §1

Shikonin + Linsitinib = compound: CC(C)=CC[C@@H](O)C1=CC(=O)c2c(O)ccc(O)c2C1=O [Shikonin] + C[C@]1(O)C[C@@H](c2nc(-c3ccc4ccc(-c5ccccc5)nc4c3)c3c(N)nccn32)C1 [Linsitinib] (partner 1 µM)
How it was run: as §1

Shikonin + Trametinib = compound: CC(C)=CC[C@@H](O)C1=CC(=O)c2c(O)ccc(O)c2C1=O [Shikonin] + CC(=O)Nc1cccc(-n2c(=O)n(C3CC3)c(=O)c3c(Nc4ccc(I)cc4F)n(C)c(=O)c(C)c32)c1 [Trametinib] (partner 0.02 µM)
How it was run: as §1

Cell Line	relative viability (Shikonin + Palbociclib; first compound 0.01 µM)	relative viability (Shikonin + Palbociclib; first compound 0.1 µM)	relative viability (Shikonin + Palbociclib; first compound 0.3162 µM)	relative viability (Shikonin + Palbociclib; first compound 1 µM)	relative viability (Shikonin + Dasatinib; first compound 0.01 µM)	relative viability (Shikonin + Dasatinib; first compound 0.1 µM)	relative viability (Shikonin + Dasatinib; first compound 0.3162 µM)	relative viability (Shikonin + Dasatinib; first compound 1 µM)	relative viability (Shikonin + Navitoclax; first compound 0.01 µM)	relative viability (Shikonin + Navitoclax; first compound 0.1 µM)	relative viability (Shikonin + Navitoclax; first compound 0.3162 µM)	relative viability (Shikonin + Navitoclax; first compound 1 µM)	relative viability (Shikonin + Linsitinib; first compound 0.01 µM)	relative viability (Shikonin + Linsitinib; first compound 0.1 µM)	relative viability (Shikonin + Linsitinib; first compound 0.3162 µM)	relative viability (Shikonin + Linsitinib; first compound 1 µM)	relative viability (Shikonin + Trametinib; first compound 0.01 µM)	relative viability (Shikonin + Trametinib; first compound 0.1 µM)	relative viability (Shikonin + Trametinib; first compound 0.3162 µM)	relative viability (Shikonin + Trametinib; first compound 1 µM)
NCI-H1651	0.553	0.522	0.544	0.523	0.385	0.391	0.37	0.438	1.03	0.98	1.01	1.06	0.974	1.12	0.996	1.01	0.882	0.873	0.882	0.83
NCI-H1666	0.648	0.664	0.617	0.599	0.809	0.873	0.882	0.857	0.923	1.02	0.962	0.723	0.835	0.802	0.807	0.865	0.896	0.855	1.02	0.772
NCI-H1734	0.319	0.38	0.323	0.308	0.512	0.499	0.538	0.477	0.941	0.83	0.949	0.74	0.839	0.91	0.939	0.857	0.664	0.771	0.747	0.732
NCI-H1755	0.463	0.443	0.432	0.482	0.484	0.46	0.499	0.475	1.04	0.988	1.14	1.07	1.04	1.04	1.05	1.07	0.703	0.812	0.756	0.742
NCI-H1792	0.717	0.493	0.729	0.7	0.91	0.6	0.934	1.01	0.607	0.639	0.58	0.778	0.511	0.388	0.658	0.661	0.476	0.327	0.424	0.553
NCI-H1793	0.283	0.321	0.306	0.345	0.419	0.376	0.381	0.461	0.43	0.379	0.407	0.76	0.894	0.778	0.891	1.07	0.393	0.414	0.392	0.417
NCI-H1915	0.535	0.521	0.525	0.645	0.316	0.35	0.3	0.341	0.719	0.793	0.795	0.847	1.05	1.16	1.15	1.09	0.308	0.31	0.309	0.298
NCI-H1944	0.311	0.403	0.321	0.349	0.193	0.247	0.196	0.158	0.988	1.1	1.08	1.14	1.2	1.44	1.35	1.27	0.382	0.431	0.415	0.469
